Data: ChEMBL document CHEMBL5346877, “A-ring-fused pyrazoles of dihydrotestosterone targeting prostate cancer cells via the downregulation of the androgen receptor” (Eur J Med Chem, 2023)
Calls of active or inactive are those of the source. The calls are words filed in the database; no cut-off is given here.

How the values were obtained:
LAPC4 [1] = experiment: Downregulation of PSA protein expression in human LAPC4 cells at 10 uM incubated for 24 hrs by immunoblotting analysis; assay type: functional, cell-based
DU-145 = experiment: Cytotoxicity against human DU-145 cells assessed as cell viability at 20 uM incubated for 72 hrs by resazurin dye based microplate reader assay; assay type: functional; conditions: read-out: Activity
LAPC4 [2] = experiment: Downregulation of Nkx3.1 protein expression in human LAPC4 cells at 10 uM incubated for 24 hrs by immunoblotting analysis; assay type: functional, cell-based
[3] = Downregulation of AR protein expression in human LAPC4 cells assessed as AR levels at 10 uM incubated for 24 hrs by immunoblotting analysis; assay type: functional
LAPC4 [4] = experiment: Cytotoxicity against human LAPC4 cells assessed as cell viability at 20 uM incubated for 72 hrs by resazurin dye based microplate reader assay; assay type: functional; conditions: read-out: Activity
CWR22R = experiment: Cytotoxicity against human 22Rv1 cells assessed as cell viability at 20 uM incubated for 72 hrs by resazurin dye based microplate reader assay; assay type: functional; conditions: read-out: Activity
LAPC4 [5] = experiment: Inhibition of colony formation in human LAPC4 cells at 10 uM incubated for 10 days by crystal violet staining based assay; assay type: functional; conditions: LAPC4, 240 h, time 10 day
LAPC4 [6] = experiment: Inhibition of colony formation in human LAPC4 cells at 5 uM incubated for 10 days by crystal violet staining based assay; assay type: functional, cell-based; conditions: time 10.0 day

SMILES	Activity (LAPC4 [1])	viability at 20 µM (DU-145) [%]	Activity (LAPC4 [2])	Activity [3]	viability at 20 µM (LAPC4 [4]) [%]	viability at 20 µM (CWR22R) [%]	inhibition at 10 µM (LAPC4 [5]) [%]	inhibition (LAPC4 [6])
C[C@]12Cc3c(nn(-c4ccccc4)c3-c3ccccc3)C[C@@H]1CC[C@@H]1[C@@H]2CC[C@]2(C)C(=O)CC[C@@H]12	inactive	19	inactive	>=100%	61	19	19	
C[C@]12Cc3c(nn(-c4ccccc4)c3-c3ccc(Cl)cc3)C[C@@H]1CC[C@@H]1[C@@H]2CC[C@]2(C)C(=O)CC[C@@H]12	inactive	98	inactive	>=100%	83	93	91	
C[C@]12Cc3cn(-c4ccc(C#N)cc4)nc3C[C@@H]1CC[C@@H]1[C@@H]2CC[C@]2(C)[C@@H](O)CC[C@@H]12	inactive	97	inactive	>=100%	93	94	76	
Cn1nc2c(c1-c1ccc(F)cc1)C[C@@]1(C)[C@@H](CC[C@@H]3[C@@H]1CC[C@]1(C)C(=O)CC[C@@H]31)C2		90		100%	29	57	17	Active
Cn1nc2c(c1-c1ccc(F)cc1)C[C@@]1(C)[C@@H](CC[C@@H]3[C@@H]1CC[C@]1(C)[C@@H](O)CC[C@@H]31)C2		89		83%	44	26	16	Active
C[C@]12Cc3cn(-c4ccc([N+](=O)[O-])cc4)nc3C[C@@H]1CC[C@@H]1[C@@H]2CC[C@]2(C)[C@@H](O)CC[C@@H]12	inactive	99	inactive	>=100%	96	≥ 100	93	
Cn1nc2c(c1-c1ccc(Br)cc1)C[C@@]1(C)[C@@H](CC[C@@H]3[C@@H]1CC[C@]1(C)[C@@H](O)CC[C@@H]31)C2		94		79%	42	21	16	Active
COc1ccc(-c2c3c(nn2C)C[C@@H]2CC[C@@H]4[C@H](CC[C@]5(C)C(=O)CC[C@@H]45)[C@@]2(C)C3)cc1		97		>=100%	35	58	34	Active
C[C@]12Cc3c(nn(-c4ccccc4)c3-c3ccc(O)cc3)C[C@@H]1CC[C@@H]1[C@@H]2CC[C@]2(C)[C@@H](O)CC[C@@H]12	inactive	57	inactive	>=100%	63	37	22	
C[C@]12Cc3cn(-c4ccc(Br)cc4)nc3C[C@@H]1CC[C@@H]1[C@@H]2CC[C@]2(C)[C@@H](O)CC[C@@H]12	inactive	≥ 100	inactive	>=100%	79	83	24	
Cc1c2c(nn1C)C[C@@H]1CC[C@@H]3[C@H](CC[C@]4(C)C(=O)CC[C@@H]34)[C@@]1(C)C2	inactive	≥ 100	inactive	86%	53	103	67	
Cn1nc2c(c1-c1ccco1)C[C@@]1(C)[C@@H](CC[C@@H]3[C@@H]1CC[C@]1(C)C(=O)CC[C@@H]31)C2		100		97%	39	43	5	Active
Cc1ccc(-n2ncc3c2C[C@@H]2CC[C@@H]4[C@H](CC[C@]5(C)[C@@H](O)CC[C@@H]45)[C@@]2(C)C3)cc1	Active	96	Active	>=100%	70	97	0	
COc1ccc(-c2c3c(nn2C)C[C@@H]2CC[C@@H]4[C@H](CC[C@]5(C)[C@@H](O)CC[C@@H]45)[C@@]2(C)C3)cc1		≥ 100		85%	51	33	5	Active
Cn1nc2c(c1-c1ccc(Cl)cc1)C[C@@]1(C)[C@@H](CC[C@@H]3[C@@H]1CC[C@]1(C)[C@@H](O)CC[C@@H]31)C2		90		91%	41	29	26	Active
C[C@]12Cc3cn(-c4ccccc4)nc3C[C@@H]1CC[C@@H]1[C@@H]2CC[C@]2(C)[C@@H](O)CC[C@@H]12	inactive	≥ 100	inactive	>=100%	100	≥ 100	59	
Cc1c2c(nn1C)C[C@@H]1CC[C@@H]3[C@H](CC[C@]4(C)[C@@H](O)CC[C@@H]34)[C@@]1(C)C2	inactive	98	inactive	98%	52	52	36	
C[C@]12Cc3cnn(-c4ccccc4)c3C[C@@H]1CC[C@@H]1[C@@H]2CC[C@]2(C)[C@@H](O)CC[C@@H]12	Active	97	Active	>=100%	60	36	1	
C[C@]12Cc3cnn(-c4ccc(Cl)cc4)c3C[C@@H]1CC[C@@H]1[C@@H]2CC[C@]2(C)[C@@H](O)CC[C@@H]12	Active	91	Active	>=100%	49	80	0	
C[C@]12Cc3c(nn(-c4ccccc4)c3-c3ccc(O)cc3)C[C@@H]1CC[C@@H]1[C@@H]2CC[C@]2(C)C(=O)CC[C@@H]12	inactive	94	inactive	>=100%	67	57	39	
Cc1ccc(-c2c3c(nn2C)C[C@@H]2CC[C@@H]4[C@H](CC[C@]5(C)C(=O)CC[C@@H]45)[C@@]2(C)C3)cc1		≥ 100		92%	34	73	23	Active
C[C@]12Cc3cn(-c4ccc(F)cc4)nc3C[C@@H]1CC[C@@H]1[C@@H]2CC[C@]2(C)[C@@H](O)CC[C@@H]12	inactive	≥ 100	inactive	>=100%	95	≥ 100	66	
Cn1nc2c(c1-c1ccc(Cl)cc1)C[C@@]1(C)[C@@H](CC[C@@H]3[C@@H]1CC[C@]1(C)C(=O)CC[C@@H]31)C2		98		67%	21	61	11	Active
Cn1nc2c(c1-c1cccs1)C[C@@]1(C)[C@@H](CC[C@@H]3[C@@H]1CC[C@]1(C)C(=O)CC[C@@H]31)C2		100		92%	31	68	4	Active
C[C@]12Cc3c(nn(-c4ccccc4)c3-c3ccc(Cl)cc3)C[C@@H]1CC[C@@H]1[C@@H]2CC[C@]2(C)[C@@H](O)CC[C@@H]12	inactive	5	inactive	>=100%	30	4	47	
Cn1nc2c(c1-c1ccccc1)C[C@@]1(C)[C@@H](CC[C@@H]3[C@@H]1CC[C@]1(C)[C@@H](O)CC[C@@H]31)C2		100		93%	51	48	2	Active
Cc1ccc(-c2c3c(nn2C)C[C@@H]2CC[C@@H]4[C@H](CC[C@]5(C)[C@@H](O)CC[C@@H]45)[C@@]2(C)C3)cc1		98		96%	52	36	28	Active
